Results: article PMC5934486, “Pheromone Binding Protein EhipPBP1 Is Highly Enriched in the Male Antennae of the Seabuckthorn Carpenterworm and Is Binding to Sex Pheromone Components” (Frontiers in Physiology, 2018)

Assays:
recombinant EhipPBP1 [1] = molecular target: T1, recombinant EhipPBP1 (Eogystia hippophaecolus, UniProt A0A1B3P5J8); test: Fluorescence competitive binding assay with 1-NPN as probe; details: for inhibition: 1-NPN and EhipPBP1 both at 2 μM, read-out: Highest combined rate (%); for inhibition / IC50: pH 7.4; for IC50: concentration of competitor causing 50% reduction of 1-NPN fluorescence, 1-NPN and EhipPBP1 at 2 μM
T1 sequence (A0A1B3P5J8 entry or part of it): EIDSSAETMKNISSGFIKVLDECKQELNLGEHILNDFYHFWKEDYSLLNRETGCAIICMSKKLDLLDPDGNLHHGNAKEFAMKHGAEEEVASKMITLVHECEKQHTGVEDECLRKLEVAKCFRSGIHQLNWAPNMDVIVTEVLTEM
Method: (§1) N-phenyl-1-naphthylamine (1-NPN) was selected for use as a selectively fluorescent probe to measure the affinity of ligand binding to recombinant EhipPBP1 ([Yin et al., 2012]; [Zhong et al., 2012]). Seven pheromone and analog compounds were a gift from Professor Zhang Jintong of Shanxi Agricultural University (Table 1) and were >97% pure. A fluorescence binding assay was performed on a multiscan Spectrum Molecular Device SpectraMax i3 (Thermo Scientific, Wilmington, DE, United States) with an excitation wavelength of 337 nm and recording of emission spectra between 380 and 520 nm. Parameter selection was such that the slit widths for both excitation and emission were 10 nm. Spectra were recorded using high-speed scanning. 2 μM solution of EhipPBP1 was prepared in 20 mM Tris-HCl buffer (pH 7.4), and the ligands were dissolved in chromatographically pure methanol as 1 mM stock solutions. The affinity of EhipPBP1 for the labeled probe was determined by adding aliquots of 1-NPN stock solution to give final concentrations of 2–20 μM. […] To determine dissociation constants, intensity values corresponding to maximum fluorescence emission were plotted against free ligand concentrations. Assuming that the protein was 100% active and that the stoichiometric ratio between protein and ligand was 1:1 at saturation, the bound ligand was determined from the fluorescence intensity values. EhipPBP1 binding with every component was replicated six times. The curves were then linearized using Scatchard plots to calculate K1-NPN values. Dissociation constants of the competitors (Ki) were calculated from the corresponding IC50 values by the following equation: Ki = [IC50]/(1 + [1–NPN]/K1-NPN), where [IC50] was the concentration of a competitor that caused a 50% reduction in the fluorescence intensity, [1–NPN] represented the free concentration of 1–NPN, and K1-NPN represented the dissociation constant of the complex of protein with 1–NPN ([Campanacci et al., 2001]).

recombinant EhipPBP1 [2] = molecular target: T1, recombinant EhipPBP1; test: Binding of the fluorescent probe 1-NPN to EhipPBP1 (Scatchard analysis); details: Scatchard method; 2 μM EhipPBP1, 1-NPN 2–20 μM, pH 7.4; read-out: dissociation constant (K1-NPN)
Method: as §1, with “EhipPBP1 binding with every component was replicated six times. The curves were then linearized using Scatchard plots to calculate K1-NPN values. Dissociation constants of the competitors (Ki) were calculated from the corresponding IC50 values by the following equation: Ki = [IC50]/(1 + [1–NPN]/K1-NPN), where [IC50] was the concentration of a competitor that caused a 50% reduction in the fluorescence intensity, [1–NPN] represented the free concentration of 1–NPN, and K1-NPN represented the dissociation constant of the complex of protein with 1–NPN ([Campanacci et al., 2001]).” left out

[3] = calculated Kd values in competitive binding assays with 1-NPN
[4] = calculated from IC50 by Ki = [IC50]/(1 + [1-NPN]/K1-NPN), Table 1

SMILES | binding to EhipPBP1 (result in words) (recombinant EhipPBP1 [1]; competitor 2–20 μM) | inhibition (recombinant EhipPBP1 [1]; competitor 2–20 μM) [%] | Kd (recombinant EhipPBP1 [1]; [3]) [nM] | Kd (recombinant EhipPBP1 [1]; [4]) [nM] | IC50 (recombinant EhipPBP1 [1]) [nM] | binding in the range of test concentrations (recombinant EhipPBP1 [1]; competitor 2–20 μM, Kd could not be calculated) [%] | Kd (recombinant EhipPBP1 [2]) [nM]
CCCCCCCCCC/C=C\CCOC(C)=O [Z3-14:Ac] | No binding was detected | – | – | – | – | – | –
CCCCCCCCCC/C=C/CCOC(C)=O [E3-14:Ac, (E)-3-tetradecenyl acetate] | – | 89.4 | 1580 ± 210 | 1570 ± 210 | 2000 | – | –
CCCCC=CCCCCCCCCOC(C)=O [Z9-14:Ac] | – | 37.9 | – | – | – | < 50 | –
c1ccc(Nc2cccc3ccccc23)cc1 [1-NPN, N-phenyl-1-naphthylamine] | – | – | – | – | – | – | 3700 ± 60

Further lines, with some results ahead:

binding to EhipPBP1 (result in words) (recombinant EhipPBP1 [1]; competitor 2–20 μM) | inhibition (recombinant EhipPBP1 [1]; competitor 2–20 μM) [%] | Kd (recombinant EhipPBP1 [1]; [3]) [nM] | Kd (recombinant EhipPBP1 [1]; [4]) [nM] | IC50 (recombinant EhipPBP1 [1]) [nM] | binding in the range of test concentrations (recombinant EhipPBP1 [1]; competitor 2–20 μM, Kd could not be calculated) [%] | SMILES | Kd (recombinant EhipPBP1 [2]) [nM]
– | 56.5 | 2360 ± 200 | 2360 ± 201 | 3000 | – | CCCCCCCCCCC=CCCO [Z3-14:OH] | –
– | 53.1 | 6300 ± 520 | 6300 ± 521 | 8000 | – | CCCC/C=C/CCCCCCCCOC(C)=O [E9-14:Ac] | –
– | 86.4 | 1180 ± 10 | 1180 ± 12 | 1500 | – | CCCCCC/C=C\CCCCCCOC(C)=O [Z7-14:Ac, (Z)-7-tetradecenyl acetate] | –
– | 62.3 | – | 3150 ± 321 | 4000 | – | CCCCCCC=CCCCCCCO [Z7-14:OH] | –
